In one experiment the test system is Colon, HT-29 Tumor Cells. In words: Anti-proliferative activity, alamarBlue cell viability, HT-29. The class given is cell-based, human. Conditions: for Percent Growth (Mean of 2): 72-hour incubation, vehicle = 100. As to the method:
(§1) UTD-4-A was dissolved in 100% DMSO and then diluted with sterile distilled water to obtain initial working solutions of […] in 40% DMSO. A 100-fold dilution was further made in culture media to generate final assay concentrations of […] in 0.4% DMSO.
(§2) Aliquots of […] of cell suspension (about 2.5×10^3/well) were placed in 96-well microtiter plates in an atmosphere of 5% CO2 at 37° C. After 24 hours, […] of growth medium and […] of test solution or vehicle (40% DMSO) were added respectively per well in duplicate for an additional 72-hour incubation.
(§3) Thus, the final concentration of DMSO was 0.4%. The test compound, UTD-4-A, was evaluated at concentrations of […]. At the end of incubation, […] of 90% alamarBlue reagent was added to each well for another 6-hour incubation before detection of cell viability by fluorescent intensity. Fluorescent intensity was measured using a Spectraflour Plus plate reader with excitation at 530 nm and emission at 590 nm.
In general terms: Resazurin is reduced to fluorescent resorufin, in cell work by metabolically active cells.

The subject of experiment [1] is Ovary, OVCAR-3 Tumor Cell. In words: Anti-proliferative activity, alamarBlue cell viability, OVCAR-3. In kind it is cell-based, human. Conditions: for Percent Growth (Mean of 2): 72-hour incubation, vehicle = 100. As to the method: as §1, §2, §3
[2] abbreviates: concentrations between 10 and 100 μM.

Here are results for 1 substance from US7160908B2, “Dynamic anticancer platinum compounds” (Unitech Pharmaceuticals, Inc., priority 2003, dated 2007).

As to “cis-[Pt(NH3)(NH2—CHCH3—CO—O)]Cl [UTD-4-A]”, the “Percent Growth (Mean of 2)” value came to 100 ± 6 in the experiment with Colon, HT-29 Tumor Cells (1 μM); 95 ± 8 with Colon, HT-29 Tumor Cells (10 μM); 41 ± 4 in the experiment on Colon, HT-29 Tumor Cells (100 μM); 100 ± 6 in experiment [1] (1 μM); 85 ± 3 in experiment [1] (10 μM); 30 ± 3 in experiment [1] (100 μM). In addition, the “growth inhibition relative to the vehicle-treated control” value is given as “significant growth inhibition” with Colon, HT-29 Tumor Cells (setting [2]) and “significant growth inhibition” in experiment [1] (setting [2]).
